ChEMBL document CHEMBL1201862, “PubChem BioAssay data set” (2004)
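A five-concentration, 48-hour dose response in 96-well plates underlies each endpoint, interpolated linearly between surrounding concentrations. GI50: concentration for 50% inhibition of growth.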 Calls of active or inactive are those of the source. Cut-off read from the data, not from the text of the source: active = GI50 up to about 1.1 µM and inactive = higher.

Tests used:
Assay in all cases: NCI tumour cell line growth inhibition, 48 h
[1] = system: A498
[2] = system: ACHN
[3] = system: CAKI-1
[4] = system: COLO 205
[5] = system: HCC 2998
[6] = system: Malme-3M
[7] = system: OVCAR-3
[8] = system: OVCAR-4
[9] = system: OVCAR-5
[10] = system: SF-268
[11] = system: SF-295
[12] = system: SN12C
[13] = system: SW-620
[14] = system: UO-31
[15] = system: CCRF-CEM
[16] = system: LOX IMVI
[17] = system: MOLT-4

| SMILES | GI50 [1] | GI50 [2] | GI50 [3] | GI50 [4] | GI50 [5] | GI50 [6] | GI50 [7] | GI50 [8] | GI50 [9] | GI50 [10] | GI50 [11] | GI50 [12] | GI50 [13] | GI50 [14] | GI50 [15] | GI50 [16] | GI50 [17] |
| --- | --- | --- | --- | --- | --- | --- | --- | --- | --- | --- | --- | --- | --- | --- | --- | --- | --- |
| Cc1ccc(NC(=O)OCC(COc2ccc(Cl)cc2Cl)OC(=O)Nc2ccc(C)cc2)cc1 (stereo unspecified) | > 100 µM (inactive) | > 100 µM (inactive) | < 0.01 µM (active) | > 100 µM (inactive) | > 100 µM (inactive) | > 100 µM (inactive) | 80.2 µM (inactive) | 33.2 µM (inactive) | > 100 µM (inactive) | > 100 µM (inactive) | > 100 µM (inactive) | > 100 µM (inactive) | > 100 µM (inactive) | 66.2 µM (inactive) |  |  |  |
| CC(=O)OCCOCBr | > 100 µM (inactive) | > 100 µM (inactive) | > 100 µM (inactive) | > 100 µM (inactive) |  | > 100 µM (inactive) | > 100 µM (inactive) | > 100 µM (inactive) | > 100 µM (inactive) | > 100 µM (inactive) | > 100 µM (inactive) | > 100 µM (inactive) | > 100 µM (inactive) | > 100 µM (inactive) | > 100 µM (inactive) | > 100 µM (inactive) |  |
| CCOC(=O)CC(=O)Sc1ccccc1 | 15.8 µM (inactive) | 23.1 µM (inactive) |  | 25.9 µM (inactive) | 23.9 µM (inactive) | 25.6 µM (inactive) | 17.3 µM (inactive) | 37.7 µM (inactive) | 36.4 µM (inactive) | 3.25 µM (inactive) | 29.6 µM (inactive) | 10.3 µM (inactive) | 19.1 µM (inactive) | 14.7 µM (inactive) | 3.82 µM (inactive) | 12.8 µM (inactive) | 11 µM (inactive) |
| COc1ccccc1NC(=O)CC(=O)n1nc(C)c(/N=N/c2ccccc2C(=O)O)c1C | 90.4 µM (inactive) |  | 47.1 µM (inactive) | > 100 µM (inactive) | > 100 µM (inactive) | > 100 µM (inactive) | 73.1 µM (inactive) | > 100 µM (inactive) | > 100 µM (inactive) | > 100 µM (inactive) | > 100 µM (inactive) | > 100 µM (inactive) | > 100 µM (inactive) | 48.6 µM (inactive) | > 100 µM (inactive) | > 100 µM (inactive) | > 100 µM (inactive) |
| CC(=O)OCCC(O[Si](c1ccccc1)(c1ccccc1)C(C)(C)C)C(C)(C)O (stereo unspecified) | > 100 µM (inactive) | 29.4 µM (inactive) |  | 15.8 µM (inactive) |  | > 100 µM (inactive) | 21 µM (inactive) | 64.1 µM (inactive) | > 100 µM (inactive) | 38.5 µM (inactive) | 21.6 µM (inactive) | 18.3 µM (inactive) | 54.8 µM (inactive) | 22.1 µM (inactive) | 24.6 µM (inactive) | 24 µM (inactive) | 24 µM (inactive) |
| CCCCCOCC(O)CO (stereo unspecified) | > 100 µM (inactive) | > 100 µM (inactive) | > 100 µM (inactive) | > 100 µM (inactive) |  | > 100 µM (inactive) | > 100 µM (inactive) | > 100 µM (inactive) | > 100 µM (inactive) | > 100 µM (inactive) | > 100 µM (inactive) | > 100 µM (inactive) | > 100 µM (inactive) |  |  | > 100 µM (inactive) |  |
| N#CC(C(=O)CCC(=O)Nc1ccc(Cl)c(Cl)c1)c1ccc(Cl)cc1 (stereo unspecified) | > 100 µM (inactive) | 17.4 µM (inactive) | 37.3 µM (inactive) |  | > 100 µM (inactive) | > 100 µM (inactive) | > 100 µM (inactive) | > 100 µM (inactive) | 23.9 µM (inactive) | > 100 µM (inactive) | 69.5 µM (inactive) | > 100 µM (inactive) | > 100 µM (inactive) | 75.2 µM (inactive) |  | > 100 µM (inactive) | 53.7 µM (inactive) |
| O=C1C2CCC(C2)C12CC1(c3ccccc3)C(=O)c3ccccc3N1O2 (stereo unspecified) | > 100 µM (inactive) | > 100 µM (inactive) |  | > 100 µM (inactive) | > 100 µM (inactive) | > 100 µM (inactive) |  | 75.5 µM (inactive) |  | > 100 µM (inactive) | 94.6 µM (inactive) | > 100 µM (inactive) | > 100 µM (inactive) | > 100 µM (inactive) | > 100 µM (inactive) |  | 42.6 µM (inactive) |
| CC/C=C/c1cc2cc[nH]c2c2c1C(C)C[C@@H]2C (stereo partly specified) | 16.3 µM (inactive) | 73.5 µM (inactive) | 32.8 µM (inactive) | 18.2 µM (inactive) | > 10 µM (inactive) | > 100 µM (inactive) | 18.9 µM (inactive) |  |  |  | 24.4 µM (inactive) | 18.9 µM (inactive) | 31.9 µM (inactive) | 24.9 µM (inactive) | 23.7 µM (inactive) | 17.1 µM (inactive) | 18.8 µM (inactive) |
